Results on one molecule are retold here after patent US20230365519A1, “CARBOXYLIC DIARYLTHIAZEPINEAMINES AND USES THEREOF” (Kures, Inc., priority 2020, published 2023).

A short description of the data set: Brain pharmacokinetics of tianeptine and its 5-carbon metabolite (7i) in mice. On the procedure:
Experimental Protocol for PK Studies. […] Brain samples were collected from three mice at 0.08, 0.25, 0.5, 1, 2, 4, 8 and 24 h, homogenized using ice-cold phosphate buffer saline (pH 7.4), and stored below -70° C. until analysis. Total homogenate volume was three times the tissue weight. All samples were processed for analysis by protein precipitation using acetonitrile (ACN) and analyzed with a fit-for-purpose LC/MS/MS method (LLOQ - 1.01 ng/mL in brain). Pharmacokinetic parameters were calculated using the non-compartmental analysis tool of Phoenix WinNonlin® (Version 6.3).

The mark [1] stands for this setting: C57BL/6 mice, single injection of tianeptine 30 mg/kg i.p.
[2] abbreviates: mice, after tianeptine 30 mg/kg i.p., in words.

As usually defined, the Tmax is the time from dosing to the highest level. With `CN1c2ccccc2C(NCCCCC(=O)O)c2ccc(Cl)cc2S1(=O)=O.Cl` (stereo not drawn) [Compound 7i], under setting [1], the AUClast turned out to be 5963 ng·h/g, the CL is 78 mL/min/kg, the time of peak concentration (Tmax) was 30 min and the T½ is given as 2.33 h. Under setting [2], the “brain exposure (as measured by AUC) compared to the parent compound (tianeptine)” value is recorded as “greater brain exposure” and the “half-life compared to the parent compound (tianeptine)” value is “significantly longer half-life”.
